Source: the supplement of paper PMC4862054

What was measured:
Details in all cases: incubation time: 72 h
BT-474 [1] = test: normalised response (% of control), CellTox Green; higher = less cell death (100 = DMSO, 0 = benzethonium chloride kill control)
Method in brief: (§1)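 Breast cancer cell lines in 20 µl suspension were added to 384-well plates containing compound at 5 concentrations, spaced in 10-fold steps across a 10,000-fold range chosen for each compound, and incubated for 72 h. CellTox Green fluorescence was read at 485/520 nm, followed by CellTiter-Glo luminescence after 10 min at room temperature. Signals on each plate were normalised so that 0.1 % DMSO equals 100 and a positive kill control equals 0. Every value in the table is the normalised signal at one concentration of the series.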

BT-549 [2] = test: as above
Method in brief: as §1

CAL-120 [3] = test: as above
Method in brief: as §1

CAL-148 [4] = test: as above
Method in brief: as §1

CAL-51 [5] = test: as above
Method in brief: as §1

CAL-85-1 [6] = test: as above
Method in brief: as §1

DU-4475 [7] = test: as above
Method in brief: as §1

HCC1143 [8] = test: as above
Method in brief: as §1

HCC1599 [9] = test: as above
Method in brief: as §1

HCC1937 [10] = test: as above
Method in brief: as §1

HDQ-P1 [11] = test: as above
Method in brief: as §1

Hs578T [12] = test: as above
Method in brief: as §1

MCF-10A [13] = test: as above
Method in brief: as §1

MDA-MB-231 [14] = test: as above
Method in brief: as §1

MDA-MB-436 [15] = test: as above
Method in brief: as §1

MDA-MB-453 [16] = test: as above
Method in brief: as §1

MDA-MB-468 [17] = test: as above
Method in brief: as §1

MFM-223 [18] = test: as above
Method in brief: as §1

BT-474 [19] = test: normalised response (% of control), CellTiter-Glo; higher = more viable cells (100 = DMSO, 0 = benzethonium chloride kill control)
Method: (§2)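 DSRT, 72 h incubation, CellTox Green / CellTiter-Glo readout. Signal is normalised to DMSO and benzethonium chloride controls. Value is the normalised response at the highest dose.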

BT-549 [20] = test: as above
Method: as §2

CAL-120 [21] = test: as above
Method: as §2

CAL-148 [22] = test: as above
Method: as §2

CAL-51 [23] = test: as above
Method: as §2

CAL-85-1 [24] = test: as above
Method: as §2

DU-4475 [25] = test: as above
Method: as §2

HCC1143 [26] = test: as above
Method: as §2

HCC1599 [27] = test: as above
Method: as §2

HCC1937 [28] = test: as above
Method: as §2

HDQ-P1 [29] = test: as above
Method: as §2

Hs578T [30] = test: as above
Method: as §2

MCF-10A [31] = test: as above
Method: as §2

MDA-MB-231 [32] = test: as above
Method: as §2

MDA-MB-436 [33] = test: as above
Method: as §2

MDA-MB-453 [34] = test: as above
Method: as §2

MDA-MB-468 [35] = test: as above
Method: as §2

MFM-223 [36] = test: as above
Method: as §2

SK-BR-3 = test: as above
Method: as §2

SMILES	normalised response (BT-474 [1])	normalised response (BT-549 [2])	normalised response (CAL-120 [3])	normalised response (CAL-148 [4])	normalised response (CAL-51 [5])	normalised response (CAL-85-1 [6])	normalised response (DU-4475 [7])	normalised response (HCC1143 [8])	normalised response (HCC1599 [9])	normalised response (HCC1937 [10])	normalised response (HDQ-P1 [11])	normalised response (Hs578T [12])	normalised response (MCF-10A [13])	normalised response (MDA-MB-231 [14])	normalised response (MDA-MB-436 [15])	normalised response (MDA-MB-453 [16])	normalised response (MDA-MB-468 [17])	normalised response (MFM-223 [18])	normalised response (BT-474 [19])	normalised response (BT-549 [20])	normalised response (CAL-120 [21])	normalised response (CAL-148 [22])	normalised response (CAL-51 [23])	normalised response (CAL-85-1 [24])	normalised response (DU-4475 [25])	normalised response (HCC1143 [26])	normalised response (HCC1599 [27])	normalised response (HCC1937 [28])	normalised response (HDQ-P1 [29])	normalised response (Hs578T [30])	normalised response (MCF-10A [31])	normalised response (MDA-MB-231 [32])	normalised response (MDA-MB-436 [33])	normalised response (MDA-MB-453 [34])	normalised response (MDA-MB-468 [35])	normalised response (MFM-223 [36])	normalised response (SK-BR-3)
COc1ccccc1S(=O)(=O)Nc1ccc2c(c1)CN(C)C(=O)N2 [PFI-1] (10000 nM)	105%	108%	104%	91.6%	83.5%	65.1%	90.2%	104%	104%	120%	103%	135%	125%	117%	101%	94.5%	193%	103%	64.6%	44.5%	75.8%	82%	56.9%	46.2%	71.8%	67.1%	56.6%	74.1%	65.2%	41.6%	54.1%	66.8%	80%	42.8%	65.4%	59.5%	64.3%
CC(C)c1c(C(=O)Nc2ccccc2)c(-c2ccccc2)c(-c2ccc(F)cc2)n1CC[C@@H](O)C[C@@H](O)CC(=O)O [Atorvastatin] (10000 nM)	104%	102%	45.3%	99.2%	-23.5%	86.1%	98%	101%	103%	92.4%	85.6%	7.6%	1.75%	-37.9%	83%	88%	121%	101%	11.1%	70%	47.4%	94.8%	21.2%	52.7%	87.4%	55.3%	83.4%	68.3%	44%	37.8%	4.77%	3.78%	71.4%	89.7%	19.1%	76.1%	79.8%
CCCCCCCCc1ccc(CCC(N)(CO)CO)cc1 [Fingolimod] (10000 nM)	0.12%	57%	69.4%	67.4%	47.5%	-110%	100%	97%	91.4%	5.79%	53.7%	37.8%	-90%	-62.5%	44.4%	33.6%	-186%	62.1%	1.96%	11.2%	78.1%	44.7%	47.6%	-0.17%	89.2%	75.8%	61.6%	5.87%	27.9%	62.2%	-0.32%	1.4%	12.8%	0.66%	-0.02%	39.2%	-0.19%
CC[C@]1(O)C[C@H]2CN(CCc3c([nH]c4ccccc34)[C@@](C(=O)OC)(c3cc4c(cc3OC)N(C=O)[C@H]3[C@@](O)(C(=O)OC)[C@H](OC(C)=O)[C@]5(CC)C=CCN6CC[C@]43[C@@H]65)C2)C1 [Vincristine] (1000 nM)	78.7%	73.4%	85%	86.8%	29.8%	54.1%	95.8%	75.8%	69.7%	102%	99.3%	33.5%	56.6%	45.3%	72.1%	82.2%	-25.1%	65.1%	53.5%	38%	62.2%	59.3%	23.8%	50.1%	42.5%	55.3%	12.2%	73.2%	71.5%	25%	68.1%	48.4%	28.8%	63.8%	38.2%	44.2%	18.5%
